# According to patent US12303513B2, “Methods and compositions to treat cancer” (Children's Hospital Medical Center, priority 2016, dated 2025):
# “Also recorded” adds a separate entry of the source.
# Legend:
# [1] = tested on: MSTO-211H mesothelioma cells; assay: Growth inhibition by iMDK combined with ABT263 (FIG. 5); type: cell-based, human; details: 48 hours, ABT263 plus iMDK versus each drug alone
# Experimental: FIG. 5. ABT263 enhanced iMDK-mediated suppression of cell proliferation in MSTO-211H mesothelioma cells. […] Cell lines: The human malignant pulmonary mesothelioma cells MSTO-211H, H2452, H2052, H28 MESO-1 and MESO-4 were grown in RPMI 1640 supplemented with 10% heat-inactivated fetal bovine serum. The human pulmonary adenocarcinoma cells: H441 and the human embryonic kidney cells: HEK293 were grown in high glucose Dulbecco's modified Eagle supplemented with 10% heat-inactivated fetal bovine serum. All cell lines were cultured in 5% CO2 at 37° C.
# 293 cells = assay: Cell viability, Wright-Giemsa staining (FIG. 18C), 293 cells; type: cell-based, human; details: 10 μM, 3 days after treatment
# endogenous midkine = assay: Endogenous midkine expression in H441 cells by western blotting (FIG. 18A); type: cell-based, human; details: H441 lung adenocarcinoma cells, 10 μM, 24 hours
# Experimental: FIG. 18. […] A. H441 lung adenocarcinoma cells were treated with iMDK and related compounds at a final concentration of 10 μM. Twenty-four hours after treatment, cells were harvest and protein expression was assessed using western blotting assay. […] B. Shown is structures of compounds #2 (also known as F6). #3 (also known as iMDK), #5, #7, and #8. C. […] DMSO was used as control.
# (§1) Cell lines: The human malignant pulmonary mesothelioma cells MSTO-211H, H2452, H2052, H28 MESO-1 and MESO-4 were grown in RPMI 1640 supplemented with 10% heat-inactivated fetal bovine serum. The human pulmonary adenocarcinoma cells: H441 and the human embryonic kidney cells: HEK293 were grown in high glucose Dulbecco's modified Eagle supplemented with 10% heat-inactivated fetal bovine serum. All cell lines were cultured in 5% CO2 at 37° C.
# [2] = tested on: MSTO211H mesothelioma cells; assay: Cell growth, cell count with Countess II (FIGS. 14, 15); type: cell-based, human; details: 48 hours, dose-dependent, vs DMSO control
# Experimental: FIG. 14. iMDK (#3) and its derivatives (A6, D9 and E6) inhibits growth of MSTO211H mesothelioma cells. MSTO211H mesothelioma cells were treated with iMDK (#3) or iMDK derivatives (A6, D9 or E6) at indicated different final concentrations.
# FIG. 15. iMDK (#3) and its derivatives (F5, F6 and F7) inhibits growth of MSTO211H mesothelioma cells. MSTO211H mesothelioma cells were treated with iMDK (#3) or iMDK derivatives (F5, F6 or F7) at indicated different final concentrations.
# as §1
# midkine protein = assay: Inhibition of midkine protein expression (Table, FIGS. 7-12); type: cell-based; details: for Activity on protein expression: 1 uM of compound
# MESO4 mesothelioma cells = assay: Cell growth, cell count with Countess II (FIGS. 16, 17); type: cell-based, human; details: MESO4, 48 hours, dose-dependent, vs DMSO control
# Experimental: FIG. 16. iMDK (#3) and its derivatives (A6, D9 and E6) inhibits growth of MESO4 mesothelioma cells. MESO4 mesothelioma cells were treated with iMDK (#3) or iMDK derivatives (A6, D9 or E6) at indicated different final concentrations.
# FIG. 17. iMDK (#3) and its derivatives (F5, F6 and F7) inhibits growth of […] mesothelioma cells. MESO4 mesothelioma cells were treated with iMDK (#3) or iMDK derivatives (F5, F6 or F7) at indicated different final concentrations.
# as §1
# H441 cells = assay: Cell viability / toxicity in H441 cells (FIGS. 18C, 19); type: cell-based, human; details: 10 μM, 3 days after treatment (not shown)
# MSTO-211H cells [3] = assay: Colony formation, crystal violet staining (FIG. 3); type: cell-based, human; details: fourteen days after treatment
# Experimental: as §1, with “Colony formation of MSTO-211H cells treated with iMDK. Fourteen days after the treatment, cells were fixed and stained with crystal violet. Representative images of experiments performed in triplicate are shown. Cell” for “Cell”
# [4] = tested on: tumors derived from MSTO-211H cells; assay: Malignant pleural mesothelioma xenograft mouse model (FIG. 6); type: in vivo; details: i.p., compared to control (DMSO)
# Excerpt: Eight mice were used in each group. Tumor growth is expressed as mean tumor volume; bars represent SD. Statistical significance was defined as p<0.05 (#)
# [5] = tested on: non-small cell lung cancer expressing MDK; details: previously reported; cited from earlier work
# H2452 mesothelioma cells = assay: Cell viability, trypan blue exclusion assay (FIG. 2), H2452; type: cell-based, human; details: H2452, 48 hours of treatment
# Experimental: as §1, with “FIG. 2. iMDK suppressed cell viability of MDK expressing malignant pulmonary mesothelioma cells. […] Cell viability was assessed by trypan blue exclusion assay. Statistical significance was defined as p<0.01 (*). Cell” for “Cell”
# MSTO-211H cells [6] = assay: Apoptosis by TUNEL staining (FIG. 4); type: cell-based, human; details: 48 h treatment, dose dependent
# Experimental: Cells were treated for 48 h at a indicated concentration of iMDK then TUNEL staining was performed to detect apoptosis using the DeadEnd colorimetric TUNEL system (Promega, Madison, WI) according to the manufacturer's protocol. Statistical significance was defined as p<0.01 (*). Cell lines: The human malignant pulmonary mesothelioma cells MSTO-211H, H2452, H2052, H28 MESO-1 and MESO-4 were grown in RPMI 1640 supplemented with 10% heat-inactivated fetal bovine serum. The human pulmonary adenocarcinoma cells: H441 and the human embryonic kidney cells: HEK293 were grown in high glucose Dulbecco's modified Eagle supplemented with 10% heat-inactivated fetal bovine serum. All cell lines were cultured in 5% CO2 at 37° C.
# H28 mesothelioma cells = assay: Cell viability, trypan blue exclusion assay (FIG. 2), H28; type: cell-based, human; details: H28, 48 hours of treatment
# Experimental: as §1, with “FIG. 2. iMDK suppressed cell viability of MDK expressing malignant pulmonary mesothelioma cells. […] Cell viability was assessed by trypan blue exclusion assay. Statistical significance was defined as p<0.01 (*). Cell” for “Cell”
# [7] = tested on: MDK expressing non-small cell lung cancer cells; details: previously reported; cited from earlier work
# PI3 kinase/Akt pathway = details: previously reported; cited from earlier work
# H2052 mesothelioma cells = assay: Cell viability, trypan blue exclusion assay (FIG. 2), H2052; type: cell-based, human; details: H2052, 48 hours of treatment
# Experimental: as §1, with “FIG. 2. iMDK suppressed cell viability of MDK expressing malignant pulmonary mesothelioma cells. […] Cell viability was assessed by trypan blue exclusion assay. Statistical significance was defined as p<0.01 (*). Cell” for “Cell”
# normal cells = details: previously reported; cited from earlier work
# [8] = tested on: MSTO-211H mesothelioma cells; assay: Cell viability, trypan blue exclusion assay (FIG. 2), MSTO-211H; type: cell-based, human; details: 48 hours of treatment
# Experimental: as §1, with “FIG. 2. iMDK suppressed cell viability of MDK expressing malignant pulmonary mesothelioma cells. […] Cell viability was assessed by trypan blue exclusion assay. Statistical significance was defined as p<0.01 (*). Cell” for “Cell”
SMILES,growth of cells (number of cells) [2],Concentration to inhibit midkine protein expression (midkine protein) [µM],Activity on protein expression (midkine protein),growth of cells (number of cells) (MESO4 mesothelioma cells),further results
CC1(C)CCC(c2ccc(Cl)cc2)=C(CN2CCN(c3ccc(C(=O)NS(=O)(=O)c4ccc(N[C@H](CCN5CCOCC5)CSc5ccccc5)c(S(=O)(=O)C(F)(F)F)c4)cc3)CC2)C1 [ABT-263],–,–,–,–,growth inhibition in combination with iMDK [1]: more effective than each drug alone; growth inhibition in combination with iMDK ([1]; listed as ABT263): enhanced growth inhibition
O=c1oc2ccccc2cc1-c1cn2cc(Cc3ccc(Cl)cc3)sc2n1 [Compound 1],significantly inhibited the growth,1,inhibits protein expression,significantly inhibited the growth,cell viability (293 cells): inhibited cell viability; endogenous midkine expression (endogenous midkine): suppressed endogenous midkine expression; cell viability (H441 cells): inhibited cell viability
O=c1oc2ccccc2cc1-c1cn2cc(Cc3ccccc3)sc2n1 [Compound 5],significantly inhibited the growth,10,inhibits protein expression,significantly inhibited the growth,–
COc1ccc(Cc2cn3cc(-c4cc5ccccc5oc4=O)nc3s2)cc1 [Compound 6],significantly inhibited the growth,1,inhibits protein expression,significantly inhibited the growth,–
O=c1oc2ccccc2cc1-c1cn2cc(Cc3cccc(C(F)(F)F)c3)sc2n1 [Compound 7],–,0.1,–,–,–
Cc1ccc(Cc2cn3cc(-c4cc5ccccc5oc4=O)nc3s2)cc1 [Compound 8],significantly inhibited the growth,1,inhibits protein expression,significantly inhibited the growth,–
O=c1oc2ccccc2cc1-c1cn2cc(Cc3ccc(C(F)(F)F)cc3)sc2n1 [Compound 9],significantly inhibited the growth,1,inhibits protein expression,significantly inhibited the growth,–
COc1ccc(-c2cn3cc(Cc4ccc(F)cc4)sc3n2)cc1 [Compound 10],significantly inhibited the growth,10,inhibits protein expression,significantly inhibited the growth,–
"O=c1oc2ccccc2cc1-c1cn2cc(Cc3ccc(F)cc3)sc2n1 [iMDK, 3-[2-(4-fluorobenzyl)imidazo[2,1-b][1,3]thiazol-6-yl]-2H-chromen-2-one]",significantly inhibited the growth,0.1,–,significantly inhibited the growth,colony formation (MSTO-211H cells [3]): suppressed colony formation; Volume of the tumors ([4]; iMDK 5 mg/kg): significantly reduced; Volume of the tumors ([4]; iMDK 9 mg/kg): significantly reduced; suppression of non-small cell lung cancer expressing MDK [5]: suppresses; growth inhibition (cell viability) (H2452 mesothelioma cells): Dose-dependent growth inhibition; cell viability (293 cells): inhibited cell viability; endogenous midkine expression (endogenous midkine): suppressed endogenous midkine expression; apoptosis (TUNEL positive cells) (MSTO-211H cells [6]): induced apoptosis; also recorded: significantly increased; growth inhibition (cell viability) (H28 mesothelioma cells): Dose-dependent growth inhibition; apoptosis [7]: induces apoptosis; PI3 kinase/Akt pathway (PI3 kinase/Akt pathway): inhibits; growth inhibition (cell viability) (H2052 mesothelioma cells): Dose-dependent growth inhibition; harm to normal cells (normal cells): without harming; growth inhibition (cell viability) [8]: Dose-dependent growth inhibition; cell viability (H441 cells): inhibited cell viability
